Results taken from PubChem BioAssay AID248 (DTP/NCI, 2004).
Several values for one entry are separate records, joined by “and”; a condition that tells them apart may be missing. Equal entries are not always repeated. Toxic doses and inconclusive results are not listed. Rule as the data show it: active = T/C of 150% or more; inactive = T/C below 125%.

System: L1210 leukemia ip in BDF1 mice, survival T/C
Assay: NCI In Vivo Anticancer Drug Screen. Data for tumor model L1210 Leukemia (intraperitoneal) in B6D2F1 (BDF1) mice
Settings: endpoint: mean survival time, higher = longer survival
Outline: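 Tumor cells were implanted, animals were treated, and survival was followed. The result divides the treated measurement by the vehicle-control measurement.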

[1] = dose: 100.0 mg/kg/injection, schedule: Q01DX009 (ip), vehicle: saline with Tween-80
[2] = dose: 100.0 mg/kg/injection, schedule: Q04DX003 (ip), vehicle: saline with Tween-80
[3] = dose: 200.0 mg/kg/injection, schedule: Q01DX009 (ip), vehicle: saline with Tween-80
[4] = dose: 200.0 mg/kg/injection, schedule: Q04DX003 (ip), vehicle: saline with Tween-80
[5] = dose: 400.0 mg/kg/injection, schedule: Q04DX003 (ip), vehicle: saline with Tween-80
[6] = dose: 100.0 mg/kg/injection, schedule: Q04DX002 (ip), vehicle: Klucel (hydroxypropylcellulose) (HPC)
[7] = dose: 200.0 mg/kg/injection, schedule: Q04DX002 (ip), vehicle: Klucel (hydroxypropylcellulose) (HPC)
[8] = dose: 400.0 mg/kg/injection, schedule: Q04DX002 (ip), vehicle: Klucel (hydroxypropylcellulose) (HPC)
[9] = dose: 400.0 mg/kg/injection, schedule: Q01DX009 (ip), vehicle: saline with Tween-80
[10] = dose: 50.0 mg/kg/injection, schedule: Q01DX009 (ip), vehicle: saline
[11] = dose: 100.0 mg/kg/injection, schedule: Q01DX009 (ip), vehicle: saline
[12] = dose: 100.0 mg/kg/injection, schedule: Q01DX009 (ip), vehicle: Klucel (hydroxypropylcellulose) (HPC)
[13] = dose: 200.0 mg/kg/injection, schedule: Q01DX009 (ip), vehicle: Klucel (hydroxypropylcellulose) (HPC)
[14] = dose: 400.0 mg/kg/injection, schedule: Q01DX009 (ip), vehicle: Klucel (hydroxypropylcellulose) (HPC)
[15] = dose: 100.0 mg/kg/injection, schedule: Q04DX003 (ip), vehicle: Klucel (hydroxypropylcellulose) (HPC)
[16] = dose: 200.0 mg/kg/injection, schedule: Q04DX003 (ip), vehicle: Klucel (hydroxypropylcellulose) (HPC)
[17] = dose: 400.0 mg/kg/injection, schedule: Q04DX003 (ip), vehicle: Klucel (hydroxypropylcellulose) (HPC)
[18] = dose: 100.0 mg/kg/injection, schedule: Q04DX003 (ip), vehicle: saline
[19] = dose: 200.0 mg/kg/injection, schedule: Q01DX009 (ip), vehicle: saline
[20] = dose: 200.0 mg/kg/injection, schedule: Q04DX003 (ip), vehicle: saline

Measured: T/C

CC(=O)CC(C)=NCC(C)N=C(C)CC(C)=O (stereo unspecified)
inactive: [1] 89 % of control | [2] 100 % of control | [3] 98 % of control | [4] 101 % of control | [5] 93 % of control

c1ccc(C2=Nc3ccccc3N=C3CCCC32)cc1 (stereo unspecified)
inactive: dose: 100.0 mg/kg/injection, schedule: Q01DX001 (ip), vehicle: carboxymethylcellulose (CMC) 103 % of control | dose: 200.0 mg/kg/injection, schedule: Q01DX001 (ip), vehicle: carboxymethylcellulose (CMC) 100 % of control | dose: 400.0 mg/kg/injection, schedule: Q01DX001 (ip), vehicle: carboxymethylcellulose (CMC) 97 % of control

CCOc1ccccc1NC(=O)Nc1cccc(C(F)(F)F)c1
inactive: [6] 99 % of control | [7] 92 % of control | [8] 89 % of control

Nc1cc(S(=O)(=O)c2ccc(O)c(N)c2)ccc1O
inactive: [1] 105 % of control | [2] 103 % of control | [3] 107 % of control | [4] 104 % of control | [9] 109 % of control | [5] 97 % of control

CCC(C)C(CN)(CCCCN1CCOCC1)c1cccc2ccccc12 (stereo unspecified)
inactive: [2] 98 % of control | [4] 93 % of control

Cl[Si](Cl)(Cl)CCc1ccccc1
inactive: dose: 25.0 mg/kg/injection, schedule: Q01DX009 (ip), vehicle: saline 104 % of control | [10] 101 % of control | [11] 90 % of control

C#CCOCCBr
inactive: [2] 97 % of control | [4] 95 % of control

O=S(=O)(/C=N\N=P(c1ccccc1)(c1ccccc1)c1ccccc1)c1ccccc1-c1ccccc1
inactive: [2] 109 % of control | [4] 98 % of control | [5] 93 % of control

CC(=Nc1cc(C)ccc1C)c1c(O)cc(C)oc1=O
inactive: [12] 97 % of control | [13] 97 % of control | [14] 103 % of control

Nc1cc(S(N)(=O)=O)ccc1N1CCCCC1
inactive: [2] 95 % of control | [4] 96 % of control | [5] 101 % of control

CC1(OC(=O)c2ccccc2)C2C=CC1C1C(=O)NC12 (stereo unspecified)
inactive: [12] 87 % of control | [15] 106 % of control | [13] 102 % of control | [16] 102 % of control | [14] 104 % of control | [17] 96 % of control

CCOC(=O)Cn1c(=O)ssc1=O
inactive: dose: 25.0 mg/kg/injection, schedule: Q04DX003 (ip), vehicle: saline 100 % of control | dose: 50.0 mg/kg/injection, schedule: Q04DX003 (ip), vehicle: saline 100 % of control | [18] 100 % of control

O=C(CC(O)(C(F)(F)F)C(F)(F)F)C(Cl)C(O)(C(F)(F)F)C(F)(F)F (stereo unspecified)
inactive: dose: 25.0 mg/kg/injection, schedule: Q01DX001 (ip), vehicle: other 104 % of control | dose: 50.0 mg/kg/injection, schedule: Q01DX001 (ip), vehicle: other 86 % of control

OC(C#Cc1ccccc1)c1ccccc1 (stereo unspecified)
inactive: dose: 50.0 mg/kg/injection, schedule: Q01DX009 (ip), vehicle: saline with Tween-80 105 % of control | [1] 100 % of control | [2] 95 % of control | [3] 88 % of control and 89 % of control | [4] 101 % of control | [9] 98 % of control

Nc1nc2nc(N=Nc3ccc(S(=O)(=O)O)cc3)[nH]c2c(=O)[nH]1
inactive: [15] 93 % of control | [16] 93 % of control | [17] 93 % of control

CCOC(=O)c1cnc(SCc2ccccc2)nc1Nc1ccccc1Cl
inactive: [2] 94 % of control | [4] 88 % of control

O=C(O)c1cc(=O)n2c3c(cccc13)CCC2
inactive: dose: 50.0 mg/kg/injection, schedule: Q04DX003 (ip), vehicle: saline with Tween-80 101 % of control | [2] 104 % of control | [4] 90 % of control

N#Cc1cn(C2OC(CO)C(O)C2O)c2ncnc([Se]Cc3ccc([N+](=O)[O-])cc3)c12 (stereo unspecified)
inactive: dose: 3.12 mg/kg/injection, schedule: Q01DX005 (ip), vehicle: saline 109 % of control | dose: 6.25 mg/kg/injection, schedule: Q01DX005 (ip), vehicle: saline 106 % of control | dose: 12.5 mg/kg/injection, schedule: Q01DX005 (ip), vehicle: saline 102 % of control

CC(=O)C1=CC[C@H]2[C@@H]3CCC4=CC(=O)CC[C@]4(C)[C@H]3C(=O)C[C@]12C
inactive: dose: 50.0 mg/kg/injection, schedule: Q01DX Z (sc), vehicle: steriod suspending solution 102 % of control | dose: 250.0 mg/kg/injection, schedule: Q01DX Z (sc), vehicle: steriod suspending solution 101 % of control | dose: 500.0 mg/kg/injection, schedule: Q01DX Z (sc), vehicle: steriod suspending solution 102 % of control

C=CCOCC(O)CNCCCOC (stereo unspecified)
inactive: [11] 107 % of control | [18] 96 % of control | [19] 98 % of control | [20] 98 % of control

CC(O)C[N+](=O)[O-] (stereo unspecified)
inactive: [10] 103 % of control | [11] 98 % of control | [19] 106 % of control

CCN(CC)N=Nc1ccccc1-c1nc(N)c2ccccc2n1
inactive: [15] 95 % of control | [16] 98 % of control

NC(=O)c1nc2c([nH]c1=O)CCCC2
inactive: [1] 94 % of control | [2] 93 % of control | [3] 94 % of control | [4] 94 % of control | [9] 94 % of control | [5] 94 % of control

CCCCCOC(=O)C(O)C(C)(Cl)c1ccccc1 (stereo unspecified)
inactive: [6] 100 % of control | [7] 111 % of control | [8] 100 % of control

CCCCC(/C=N\NC(=O)c1ccc[n+](C)c1)CC (stereo unspecified)
inactive: [10] 103 % of control | [11] 100 % of control

CC(C)=NNC(=O)CNc1ccc(Cl)c(C(F)(F)F)c1
inactive: [6] 97 % of control | [7] 104 % of control | [8] 111 % of control

CCNC(=O)Nc1ccc(C(=O)O)c(O)c1 (tested in a mixture with another compound)
inactive: [2] 97 % of control | dose: 100.0 mg/kg/injection, schedule: Q04DX003 (sc), vehicle: olive oil, sesame oil, peanut oil 97 % of control | [4] 92 % of control | dose: 200.0 mg/kg/injection, schedule: Q04DX003 (sc), vehicle: olive oil, sesame oil, peanut oil 102 % of control | [5] 102 % of control | dose: 400.0 mg/kg/injection, schedule: Q04DX003 (sc), vehicle: olive oil, sesame oil, peanut oil 97 % of control

CCCCCCCCCCCCCCCCCCNC(=O)OCC
inactive: dose: 100.0 mg/kg/injection, schedule: Q04DX002 (sc), vehicle: olive oil, sesame oil, peanut oil 103 % of control | dose: 200.0 mg/kg/injection, schedule: Q04DX002 (sc), vehicle: olive oil, sesame oil, peanut oil 113 % of control | dose: 400.0 mg/kg/injection, schedule: Q04DX002 (sc), vehicle: olive oil, sesame oil, peanut oil 106 % of control

BrCC1OCC2(CO1)COC(CBr)OC2 (stereo unspecified)
inactive: [15] 96 % of control | [16] 104 % of control

COC(=N)c1ccc2c(c1)OCO2
inactive: [18] 94 % of control | [20] 94 % of control | dose: 400.0 mg/kg/injection, schedule: Q04DX003 (ip), vehicle: saline 100 % of control
